{"source": "patent US20110191897A1", "about": "“Plants Tolerant to HPPD Inhibitor Herbicides” (Bayer CropScience AG, priority 2009, published 2011)", "key": {"[1]": {"system": "T1 tobacco plants with Arabidopsis HPPD", "experiment": "Glasshouse spray trial, herbicidal damage", "type": "in vivo, Nicotiana tabacum", "conditions": "100 gAl/ha, 7DAT", "method": "(§1) T0 Tobacco plants containing either the gene from Arabidopsis coding for HPPD or the gene FMP37e from Blepharisma japonicum coding for FMP37 HPPD, mentioned above (Example 3), were transferred to the glasshouse (28/20° C.), to develop further and produce seeds. Those seeds were harvested and put on soil (ED73 mixed with sand and osmocote Pro) to germinate in the glasshouse (28/20° C.). Three to four weeks later, plantlets were transferred to single pots containing the soil mentioned above. Two weeks later, plants of a size 4-6 cm diameter were sprayed with either • tembotrione at 100 Al/ha prepared from a WP20 (wettable powder 20%) formulation supplemented with ammonium sulfate and methyl ester raps oil, or • isoxaflutole at 100 Al/ha prepared from a WP20 formulation supplemented with ammonium sulfate and methyl ester raps oil, or • bicyclopyrone at 100 gAl/ha prepared from a WP20 formulation supplemented with ammonium sulfate and methyl ester raps oil, or • “blind formulation” made from a WP20 formulation without active ingredient (Al) supplemented with ammonium sulfate and methyl ester raps oil, and were then transferred to a growth chamber with adequate light conditions (20000Lux)."}, "[2]": {"system": "T1 tobacco plants with FMP37e coding for the HPPD FMP37", "experiment": "Glasshouse spray trial, herbicidal damage", "type": "in vivo, Nicotiana tabacum", "conditions": "line 113, individual plants, 100 gAl/ha, 7DAT", "method": "as §1"}, "[3]": {"system": "T0 tobacco plants expressing the FMP37 HPPD (FMP37t)", "experiment": "Greenhouse response of T0 tobacco plants to tembotrione", "type": "in vivo, Nicotiana tabacum", "conditions": "100 g AI/ha, two weeks after treatment", "excerpt": "As an example, rooted plants containing the T-DNA PromCaMV35S-OTP-HIS6—FMP37t-TerCaMV35S, will be transferred to the greenhouse under standard growth conditions. Following a period of acclimation of two weeks, the T0 plants will be treated with a mixture containing 100 g tembotrione/ha prepared from a WP20 (wettable powder 20%) formulation supplemented with ammonium sulfate and methyl ester raps oil. Two weeks after the treatment, the symptoms due to the application of the herbicides will be evaluated. The plants are classified in four categories. The treated plants evaluated as “0” are looking like the untreated tobacco plants. The plants evaluated as “1” display temporary light bleaching phenotype due to the application of the herbicides. The plants evaluated as “2” display permanent light to strong bleaching symptoms. Finally the plants evaluated as “3” are looking like wild type tobacco plants submitted to the same treatment."}, "[4]": {"system": "rice shoots transformed with FMP37e", "experiment": "Bleaching of transformed rice shoots on MS/2 with tembotrione", "type": "in vivo", "conditions": "2 weeks", "method": "Rice transformation is achieved using methods well known in the art. Briefly, the Agrobacterium tumefaciens mediated transformation of rice was performed using immature embryos, from the restorer line 6G4317. Briefly, panicles from donor plants were harvested 8-12 days after pollination. The lemma of the immature seed was removed. Seeds were thereafter sterilized using a NaOCl based solution and Tween. The seeds were preinduced with acetylsalicylic acid. Agrobacterium tumefaciens cells were then co-cultivated with the preinduced seeds in presence of acetosyringone for 4 days at 24° C. in the dark. Thereafter, coleoptile from embryos were removed and washed, then put on a media supplemented with phosphinothricin for 3 weeks at 28° C. under a photoperiod rhythm of 16 hours. Then the growing calli were cut off from the embryos, and transferred to fresh media containing triacillin, phosphinothricin, L-proline and copper (II) sulfate.\nFor each callusline and per Tembotrione concentration, 3 shoots, and randomly isolated from different callus pieces, were transferred to MS/2 with Tembotrione. As a general rule, transfer of the shoots from regeneration medium to MS/2 occurred 9 weeks after calli had been put on regeneration medium.\nCultures were incubated at 26.5° C. (16 hrs. photoperiod) and evaluation of symptoms occurred 2 weeks later.\nNew developing leaves of the shoots transferred have been scored on the basis of bleaching and categorized in 3 groups:\na) no bleaching b) intermediate bleaching c) complete bleaching\nWithin the category ‘intermediate bleaching’ a distinction has been made between shoots having new leaves showing only very little bleaching symptoms and thus tending to green leaves, and shoots with new leaves almost completely bleached."}, "[5]": {"system": "soybean events expressing the FMP37 HPPD protein", "experiment": "Soybean greenhouse treatment with tembotrione", "type": "in vivo", "conditions": "100 g Al/ha, eight events", "method": "Plants containing the transgene were then sprayed with HPPD inhibitor herbicides, as for example with tembotrione at a rate of 100 g Al/ha. Ten days after the application the symptoms due to the application of the herbicide were evaluated and compared to the symptoms observed on a wild type plants under the same conditions.\nEight events expressing the FMP37 HPPD protein have been generated from the green shoots of above and were transferred to the greenhouse. Four weeks after acclimation, i.e. plants at a developmental stage of 3-4 internodes were treated with 100 g Al/ha tembotrione prepared from a WP 20 formulation supplemented with ammonium sulfate and methyl ester raps oil. Ten days after application, the symptoms caused by the application of the HPPD inhibitor herbicide were evaluated and compared to the symptoms observed on treated non-transgenic wild-type soybean plants."}, "[6]": {"system": "tobacco plants with FMP37t-h, PAT and 2mEPSPS (pFCO112)", "experiment": "Glasshouse trial of tobacco with three tolerance genes", "type": "in vivo, Nicotiana tobacum", "conditions": "9 DAT", "method": "A binary vector for tobacco transformation is, for example, constructed with the CaMV35 promoter driving the expression of the gene FMP37t-h (SEQ ID No. 15), with a codon usage optimized for the expression in dicotyledoneous plants and at its 5′ extremity was added a sequence coding for an OTP, and further upstream a sequence TEV (Tobacco etch virus) to improve the stability of the mRNA in plants followed by the CaMV35S terminator. The nucleotide sequence of the gene FMP37t-h is given in SEQ ID No. 15. Additionally, the transformation vector also contains a PAT gene cassette in which the gene is driven by a CaVM35S promoter and followed by a CaMV35S terminator for glufosinate based selection during the transformation process and a 2mEPSPS gene cassette in which the gene is driven by an histone promoter from Arabidopsis to confer tolerance to the herbicide glyphosate to the transformed plants (see FIG. 3 H). The binary vector was called pFCO112. The above vector was used to transform leaf disks obtained from Nicotiana tobacum plants, according to Example 3.\nTransgenic tobacco plants were transferred to the greenhouse and treated with glyphosate at a rate of 1121 g Al/ha. Seeds were produced from such tolerant tobacco plants and harvested. These seeds were put on soil to germinate in the glasshouse. Three to four weeks later, 50 plantlets per event were transferred to single pots. Two weeks later, plants of a size 4-6 cm were sprayed either with:\n[…] […] Non-transgenic tobacco plants were completely killed by treatment using one or more of the above herbicides."}}, "note": "Several values for one entry are separate records, joined by “and”; a condition that tells them apart may be missing. Identical values can stand only once."}
{"smiles": "CS(=O)(=O)c1ccc(C(=O)C2C(=O)CCCC2=O)c(Cl)c1COCC(F)(F)F", "note": "[Tembotrione, 2-[2-chloro-4-(methylsulfonyl)-3-[(2,2,2,-tri-fluoroethoxy)methyl]benzoyl]-1,3-cyclo-hexanedione]", "values": [{"measurement": "% injury", "setting": "[1]; line 252, individual plants", "value": 40, "unit": "%"}, {"measurement": "% injury", "setting": "[1]; line 258, individual plants", "value": 100, "unit": "%"}, {"measurement": "% injury", "setting": "[1]; line 327, individual plants", "value": "40% and 50%"}, {"measurement": "% injury", "setting": "[2]", "value": "5% and 10% (2×) and 40% and 70%"}, {"measurement": "number of plants in category 0 (looking like the untreated tobacco plants)", "setting": "[3]", "value": 6}, {"measurement": "number of plants in category 2 (permanent light to strong bleaching)", "setting": "[3]", "value": 13}, {"measurement": "number of plants in category 3 (like treated wild type tobacco plants)", "setting": "[3]", "value": 7}, {"measurement": "N° of shoots completely bleached", "setting": "[4]; 1 μM", "value": 17}, {"measurement": "N° of shoots with intermediate bleaching", "setting": "[4]; 1 μM", "value": 24}, {"measurement": "N° of shoots completely bleached", "setting": "[4]; 5 μM", "value": 43}, {"measurement": "N° of shoots with intermediate bleaching", "setting": "[4]; 5 μM", "value": 17}, {"measurement": "events with bleaching like non-transgenic wild-type soybean plant", "setting": "[5]", "value": "two events"}, {"measurement": "events with local transitory bleaching symptoms, recovered completely 7 days after application", "setting": "[5]", "value": "One other event"}, {"measurement": "events with transitory light bleaching symptoms, recovered 14 days after application", "setting": "[5]", "value": "One event"}, {"measurement": "events without any bleaching phenotype", "setting": "[5]; ten days after application", "value": "Four of the eight events"}, {"measurement": "number of plants in Class I (no injuries)", "setting": "[6]; line 634, 100 g AI/ha", "value": 0}, {"measurement": "number of plants in Class II (injury: 10-40%)", "setting": "[6]; line 634, 100 g AI/ha", "value": 3}, {"measurement": "number of plants in Class III (injury: 41-100%)", "setting": "[6]; line 634, 100 g AI/ha", "value": 7}, {"measurement": "number of plants in Class I (no injuries)", "setting": "[6]; line 713, 100 g AI/ha", "value": 0}, {"measurement": "number of plants in Class II (injury: 10-40%)", "setting": "[6]; line 713, 100 g AI/ha", "value": 6}, {"measurement": "number of plants in Class III (injury: 41-100%)", "setting": "[6]; line 713, 100 g AI/ha", "value": 4}]}
